# Assay results reported in paper PMC4113810, “Hainanerectamines A–C, Alkaloids from the Hainan Sponge Hyrtios erecta” (Marine Drugs, 2014).
# Target: T1, Aurora A (Homo sapiens, UniProt O14965)
# T1 construct: gene AURKA
# T1 sequence (O14965 1-403): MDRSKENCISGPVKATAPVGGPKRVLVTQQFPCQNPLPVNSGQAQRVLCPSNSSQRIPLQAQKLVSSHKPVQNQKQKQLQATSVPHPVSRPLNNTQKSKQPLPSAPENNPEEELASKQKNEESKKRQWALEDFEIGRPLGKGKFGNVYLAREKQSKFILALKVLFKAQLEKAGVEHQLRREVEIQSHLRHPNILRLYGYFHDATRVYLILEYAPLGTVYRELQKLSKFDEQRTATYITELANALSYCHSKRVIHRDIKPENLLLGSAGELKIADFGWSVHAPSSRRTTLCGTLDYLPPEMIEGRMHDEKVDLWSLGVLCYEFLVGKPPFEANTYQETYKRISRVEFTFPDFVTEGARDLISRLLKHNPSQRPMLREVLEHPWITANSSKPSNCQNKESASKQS
# Test: Z-LYTE kinase assay (peptide/kinase mixture with ATP, fluorescence)
# Type: biochemical
row,SMILES,IC50 [µM]
1,"C/C=C(/C=O)c1c[nH]c2ccc(O)cc12 [compound 2, hainanerectamine B]",122
2,"O=C(O)[C@@H]1Cc2c([nH]c3ccc(O)cc23)[C@H](Cc2c[nH]cn2)N1 [compound 3, (−)-(1R^*, 3R^*)-6-hydroxy-1-(4-methylene-1H-imidazole)-2,3,4,9-tetrahydro-1H-β-carboline-3-carboxylic acid]",43.5
3,"CSc1ncn(C)c1C[C@@H]1N[C@H](C(=O)O)Cc2c1[nH]c1ccc(O)cc21 [compound 4, hainanerectamine C]",49.9
